Data: patent publication US4020164A, “Benzomorphan derivatives” (priority 1972, dated 1977)
Entries after “also recorded” stand apart in the source; their conditions may differ. Structures can show the parent of a compound that is named as a salt. Where two headings read alike, the source gives them in different places.

Key:
phenylquinone [1] = test: Writhing test, acute (phenylquinone writhing, analgesic activity); format: in vivo; details: mice; for ED50, writhing test, acute p.o., 10 min. p.i. / ED50, writhing test, acute p.o., 30 min. p.i. / ED50, writhing test, acute s.c., 30 min. p.i. / ED50, writhing test, acute s.c., 10 min. p.i. / ED50: phenylquinone 2 mg/kg i.p., hydrochloride, acute; for potency in writhing test compared with cyclazocine: vs. cyclazocine; for potency in writhing test compared with morphine: vs. morphine; for potency in writhing test compared with pentazocine: vs. pentazocine
Method: (§1) The pharmacological investigations were conducted on mice weighing 20-22 g. or on rats weighing 80-110 g. Unless indicated otherwise, the test substances were administered in the form of the hydrochloride acid addition salt thereof in an isotonic NaCl solution, and the animals were examined 30 minutes after subcutaneous (sc) application. The injection volume was respectively 5 ml./kg. of body weight. 10-40 controls animals were used in each experiment. The test and control solutions were administered in accordance with a randomized injection schedule. Seven logarithmically spaced dosages were employed of each test substance. The effective dose (ED) was calculated by probit analysis (Finney, D. J., "Probit Analysis," Cambridge University Press, 2nd Edition, Cambridge 1957). ED50 figures were rounded.
(§2) In the acute test, the test compounds were administered perorally (p.o.) or subcutaneously (s.c.) to mice. Eight mice were used per dose. Seven minutes prior to the testing, the animals received 2 mg./kg. of phenylquinone intraperitoneally. […] The criterion for protective effect was absence of writhes during the eighth minute after phenylquinone administration.

electroshock = test: Maximal electroshock test; format: in vivo; details: mice; for ED50, Maximal Electroshock Test / ED50: 16 mA/50 c.p.s., 0.2 second, transcorneal, absence of tonic extensor cramp of hind limbs, 30 min; for ED50, Maximal Electroshock Test: s.c.; for ED50: Mus musculus, sc, 0.5 h
Method: 10-40 controls animals were used in each experiment. […] ED50 figures were rounded.
In the maximum electroshock test, the test substances were administered to dose groups of 6 mice. Sinusoidal pulses of 16 milliamperes/50 c.p.s. [Hertz] and 0.2 second duration were delivered transcorneally via silver electrodes. The shock intensity used elicits nonlethal tonic-clonic convulsions in control animals (p <0.01, N = 192). The criterion for protective effect was the absence of the tonic extensor cramp of the hind limbs after shock application (modified test according to Swinyard et al., J. Pharmacol. Exp. Ther. 106, 319, 1952).

apomorphine = test: Apomorphine antagonism test; format: in vivo, mice; details: for apomorphine-antagonistic activity compared with cyclazocine and pentazocine: vs. cyclazocine and pentazocine; for apomorphine-antagonistic activity compared with haloperidol: vs. haloperidol; for ED50, Apomorphine Antagonism: mouse, in vivo, 1.56 mg/kg; for ED50: read-out: ED50, Apomorphine Antagonism
Method: as §1
The criterion for antagonistic effect was the absence of stereotyped movements within an observation period of one minute.

morphine [2] = test: Precipitated Withdrawal Jumping Test (morphine antagonism in morphine-dependent mice); format: in vivo
Method: as §1
The test compound was given to dose groups of 8 animals. The antagonist-precipitated withdrawal jumping frequencies were recorded during three 5-minute observation intervals uniformly distributed over 30 minutes after administration of the test compound. […] The criterion for a precipitating effect is a mean jumping frequency of >1/minute.

morphine [3] = test system: morphine; parameters: species or system mice; details: mouse, in vivo; for ED50, Morphine Antagonism-Tail-Flick Test, Mice: 12.5 mg/kg
morphine [4] = test: animal or person; format: in vivo, rats; details: for ED50, Morphine Antagonism-Tail-Flick Test, Rats: 6.25 mg/kg
phenylquinone [5] = details: mice; s.c.; 30 min p.i.; 25 hours after last injection of 64-hour pretreatment, total 550 mg/kg
Method: as §1, §2
In the subchronic test, the same test was performed 25 hours after the last injection of a 64-hour pretreatment period, with the test compound being administered subcutaneously. During the pretreatment period, the subjects received a total of 550 mg/kg. of the test compound, with the test compound being injected over a period of 22 hours in 4 increasing dosages in salt form, and over an additional 42 hours in 2 identical dosages in free base form in sesame oil.

[6] = J. Pharmacol. Exp. Ther. 144, 12, 1964; Clin. Pharmacol. Ther. 11:1, 41, 1970; cited from earlier work
[7] = p.o., 10 min p.i., ED50 rounded
[8] = p.o., 30 min p.i., ED50 rounded
[9] = s.c., 30 min p.i., * = significant difference between acute and subchronic ED50 (p < 0.001)
[10] = s.c., 10 min p.i., ED50 rounded
[11] = morphine-dependent mice, criterion mean jumping frequency >1/minute

CCC12CCN(CC(C)(C)O)C(Cc3ccc(O)cc31)C2C (single isomer, unassigned; (-)) [Compound A, (-)-5-ethyl-2'-hydroxy-2-(2-hydroxy-2-methylpropyl)-9-methyl-6,7-benzomorphan]
ED50, writhing test, acute p.o., 10 min. p.i. (phenylquinone [1]; [7]): 3 mg/kg
ED50, writhing test, acute p.o., 30 min. p.i. (phenylquinone [1]; [8]): 7 mg/kg
ED50, writhing test, acute s.c., 30 min. p.i. (phenylquinone [1]; [9]): 0.2 mg/kg
potency in writhing test compared with cyclazocine (phenylquinone [1]): at least equipotent with cyclazocine
potency in writhing test compared with morphine (phenylquinone [1]): more potent than morphine
potency in writhing test compared with pentazocine (phenylquinone [1]): appreciably more potent than pentazocine
muscle-relaxant and anti-convulsant effect in maximum electroshock test (in words) (electroshock): strong muscle-relaxant and anti-convulsant effect
ED50, Maximal Electroshock Test (electroshock): 8 mg/kg
apomorphine-antagonistic activity compared with cyclazocine and pentazocine (apomorphine; mice): markedly stronger activity than cyclazocine and pentazocine
apomorphine-antagonistic activity compared with haloperidol (apomorphine; mice): only slightly weaker effectiveness than haloperidol
ED50, Apomorphine Antagonism (apomorphine; sc): 0.3 mg/kg

CC1C2Cc3ccc(O)cc3C1(C)CCN2CC(C)(C)O (single isomer, unassigned; (-)) [Compound B, (-)-2'-hydroxy-2-(2-hydroxy-2-methylpropyl)-5,9-dimethyl-6,7-benzomorphan]
ED50, writhing test, acute p.o., 10 min. p.i. (phenylquinone [1]; [7]): 5 mg/kg
ED50, writhing test, acute p.o., 30 min. p.i. (phenylquinone [1]; [8]): 10 mg/kg
ED50, writhing test, acute s.c., 10 min. p.i. (phenylquinone [1]; [10]): 0.05 mg/kg
ED50, writhing test, acute s.c., 30 min. p.i. (phenylquinone [1]; [9]): 0.4 mg/kg
potency in writhing test compared with cyclazocine (phenylquinone [1]): at least equipotent with cyclazocine
potency in writhing test compared with morphine (phenylquinone [1]): more potent than morphine
potency in writhing test compared with pentazocine (phenylquinone [1]): appreciably more potent than pentazocine
precipitated withdrawal effect (in words) (morphine [2]; morphine-dependent mice): inactivity
sedative and muscle-relaxant effect (explaining inactivity in jumping test) (morphine [2]; morphine-dependent mice): simultaneous sedative and muscle-relaxant effect
ED50, Precipitated Withdrawal Jumping Test (inactive, footnote 1) (morphine [2]; morphine-dependent mice, tested at 0.1 - 3.13 mg/kg): Inactive
morphine-antagonistic activity, tail-flick test (in words), mice (morphine [3]): marked activity
ED50, Morphine Antagonism-Tail-Flick Test, Mice (morphine [3]; sc): 5 mg/kg
morphine-antagonistic activity, tail-flick test (in words), rats (morphine [4]; rat, in vivo): marked activity
ED50, Morphine Antagonism-Tail-Flick Test, Rats (morphine [4]; rat, in vivo, sc): 3 mg/kg
muscle-relaxant and anti-convulsant effect in maximum electroshock test (in words) (electroshock): strong muscle-relaxant and anti-convulsant effect
ED50, Maximal Electroshock Test (electroshock): 4 mg/kg
apomorphine-antagonistic activity compared with cyclazocine and pentazocine (apomorphine; mice): markedly stronger activity than cyclazocine and pentazocine
apomorphine-antagonistic activity compared with haloperidol (apomorphine; mice): only slightly weaker effectiveness than haloperidol
ED50, Apomorphine Antagonism (apomorphine; sc): 0.3 mg/kg
ED50, writhing test, subchronic s.c., 30 min. p.i. (phenylquinone [5]): 0.4 mg/kg

CCC12CCN(CC(C)O)C(Cc3ccc(O)cc31)C2C (single isomer, unassigned; (-)) [Compound C, (-)-5-ethyl-2'-hydroxy-2-(2-hydroxypropyl)-9-methyl-6,7-benzomorphan]
precipitated withdrawal effect (in words) (morphine [2]; morphine-dependent mice): considerable activity
ED50, Precipitated Withdrawal Jumping Test (morphine [2]; [11]): 7 mg/kg
morphine-antagonistic activity, tail-flick test (in words), mice (morphine [3]): marked activity
ED50, Morphine Antagonism-Tail-Flick Test, Mice (morphine [3]; sc): 1 mg/kg
morphine-antagonistic activity, tail-flick test (in words), rats (morphine [4]; rat, in vivo): marked activity
ED50, Morphine Antagonism-Tail-Flick Test, Rats (morphine [4]; rat, in vivo, sc): 2 mg/kg

CC(O)CN1CCC2(C)c3cc(O)ccc3CC1C2C (single isomer, unassigned; (-)) [Compound D, (-)-2'-hydroxy-2-(2-hydroxypropyl)-5,9-dimethyl-6,7-benzomorphan]
precipitated withdrawal effect (in words) (morphine [2]; morphine-dependent mice): considerable activity
ED50, Precipitated Withdrawal Jumping Test (morphine [2]; [11]): 9 mg/kg
morphine-antagonistic activity, tail-flick test (in words), mice (morphine [3]): marked activity
ED50, Morphine Antagonism-Tail-Flick Test, Mice (morphine [3]; sc): 1 mg/kg
morphine-antagonistic activity, tail-flick test (in words), rats (morphine [4]; rat, in vivo): marked activity
ED50, Morphine Antagonism-Tail-Flick Test, Rats (morphine [4]; rat, in vivo, sc): 2 mg/kg

CNC1=Nc2ccc(Cl)cc2C(c2ccccc2)=[N+]([O-])C1 [Chlordiazepoxide, reference compound]
ED50 (electroshock): 12 mg/kg

C[C@H]1[C@H]2Cc3ccc(O)cc3[C@]1(C)CCN2CC1CC1 [Cyclazocine, reference compound]
ED50 (phenylquinone [1]; Mus musculus, po, 10 min, p.o., 10 min p.i., ED50 rounded, read-out: ED50, writhing test, acute p.o., 10 min. p.i.): 6 mg/kg
ED50 (phenylquinone [1]; Mus musculus, po, 0.5 h, p.o., 30 min p.i., ED50 rounded, read-out: ED50, writhing test, acute p.o., 30 min. p.i.): 8 mg/kg
ED50 (phenylquinone [1]; Mus musculus, sc, 10 min, s.c., 10 min p.i., ED50 rounded, read-out: ED50, writhing test, acute s.c., 10 min. p.i.): 0.06 mg/kg
ED50 (phenylquinone [1]; Mus musculus, sc, 0.5 h, s.c., 30 min p.i., * = significant difference between acute and subchronic ED50 (p < 0.001), read-out: ED50, writhing test, acute s.c., 30 min. p.i.): 0.09 mg/kg
precipitated withdrawal effect (in words) (morphine [2]; morphine-dependent mice): inactivity
sedative and muscle-relaxant effect (explaining inactivity in jumping test) (morphine [2]; morphine-dependent mice): simultaneous sedative and muscle-relaxant effect
ED50, Precipitated Withdrawal Jumping Test (inactive, footnote 2) (morphine [2]; morphine-dependent mice, tested at 0.55 - 3.13 mg/kg): Inactive
ED50, Morphine Antagonism-Tail-Flick Test, Mice (morphine [3]; sc): 0.1 mg/kg
ED50 (morphine [4]; Rattus norvegicus, sc, read-out: ED50, Morphine Antagonism-Tail-Flick Test, Rats): 0.2 mg/kg
properties of cyclazocine from the literature [6]: narcotic partial antagonist of the benzomorphan series with analgesic; also recorded: antidepressant properties
ED50 (electroshock): 2 mg/kg
muscle-relaxant and anti-convulsant effect in maximum electroshock test (in words) (electroshock): strong muscle-relaxant and anti-convulsant effect
ED50 (apomorphine; Mus musculus, sc): 6 mg/kg

O=C(CCCN1CCC(O)(c2ccc(Cl)cc2)CC1)c1ccc(F)cc1 [Haloperidol, reference compound]
ED50 (apomorphine; Mus musculus, sc): 0.1 mg/kg

CN1CC[C@]23c4c5ccc(O)c4O[C@H]2[C@@H](O)C=C[C@H]3[C@H]1C5 [Morphine, reference compound]
ED50, writhing test, acute p.o., 10 min. p.i. (phenylquinone [1]; [7]): 7 mg/kg
ED50, writhing test, acute p.o., 30 min. p.i. (phenylquinone [1]; [8]): 3 mg/kg
ED50, writhing test, acute s.c., 10 min. p.i. (phenylquinone [1]; [10]): 0.3 mg/kg
ED50, writhing test, acute s.c., 30 min. p.i. (phenylquinone [1]; [9]): 0.5 mg/kg
ED50, writhing test, subchronic s.c., 30 min. p.i. (phenylquinone [5]): 3 mg/kg

C=CCN1CC[C@]23c4c5ccc(O)c4O[C@H]2C(=O)CC[C@@]3(O)[C@H]1C5 [Naloxone, reference compound]
ED50 (morphine [2]; Mus musculus, sc, morphine-dependent mice, criterion mean jumping frequency >1/minute): 0.2 mg/kg
jumping frequency, solvent controls challenged with naloxone (morphine [2]; mice, solvent controls, naloxone 0.39 mg/kg, N = 80): 0.13 ± 0.06 min⁻¹

CN1CCc2cccc3c2[C@H]1Cc1ccc(O)c(O)c1-3 [apomorphine hydrochloride, reference compound]
ED95 (apomorphine; Mus musculus, sc, mice, ED95, s.c., read-out: apomorphine dose corresponding to an ED95 for the production of stereotyped behavior in the head region): 1.56 mg/kg

CN1CC[C@]23c4c5ccc(O)c4O[C@H]2[C@@H](O)C=C[C@H]3[C@H]1C5.O=S(=O)(O)O [morphine sulfate, reference compound]
morphine dose corresponding to the ED80, reaction times exceeding 95% value of controls (morphine [3]; sc): 12.5 mg/kg
morphine dose corresponding to the ED99, reaction times exceeding 95% value of controls (morphine [4]; rat, in vivo): 6.25 mg/kg

O=C1C=CC(=O)C(c2ccccc2)=C1 [phenylquinone, reference compound]
ED95 (phenylquinone [1]; Mus musculus, ip, 10 min, ED95, intraperitoneal, maximum action within 10 minutes p.i., read-out: phenylquinone dosage corresponding to the ED95 for the evocation of writhing): 2 mg/kg
